# Measured values published in patent US10047049B2, “Process for preparing pridopidine” (priority 2015, dated 2018).
# Experiments:
# [1] = format: physicochemical
# Source text: The purity profile of the isolated Compound 9 was better when performing the crystallization from water (Batch 2602 and Batch 2603; both had purities over 99.5%) compared to both crystallization from water/MTBE mixture (purity of 98.5%) and pure MTBE (Batch 2601; purity was 98.5%). The major improvement is removal of early eluting/polar impurities. The yield of the present method may be slightly lower because there will be a small loss of material in the mother liquor. Estimated solubility of Compound 9 in the mother liquor at 5-20° C. is 0.8-0.9% (Batch 2602 and Batch 2603). In the current method this would correspond to 4-5% of the material being lost. This is considered an acceptable loss because of the improved purity of Compound 9.
# [2] = cited from earlier work
smiles,measurement,setting,value
"CCCN1CCC(O)(c2cccc(SC)c2)CC1 [Compound 9, 4-(3-(methylthio)phenyl)-1-propylpiperidin-4-ol]",Estimated solubility in the mother liquor,[1],0.8-0.9%
"CSc1ccccc1 [TA, thioanisole]",solubility (water),[2],500 µg/mL
CCCCCCBr [hexyl bromide],solubility in water,[2],insoluble in water
